Test results from patent US20230265432A1, “METHODS AND COMPOSITIONS FOR TREATING ACUTE MYELOID LEUKEMIA” (Sanford Burnham Prebys Medical Discovery Institute, priority 2021, published 2023).
Where a name gives a salt, the structure may show the parent alone.

What was measured:
JAK2 = JAK2 (Homo sapiens, UniProt O60674); conditions: cited from earlier work
HDAC = conditions: cited from earlier work
SIRT1 = molecular target: T1, SIRT1 (Homo sapiens, UniProt Q96EB6); conditions: cited from earlier work
T1 sequence (Q96EB6 1-747): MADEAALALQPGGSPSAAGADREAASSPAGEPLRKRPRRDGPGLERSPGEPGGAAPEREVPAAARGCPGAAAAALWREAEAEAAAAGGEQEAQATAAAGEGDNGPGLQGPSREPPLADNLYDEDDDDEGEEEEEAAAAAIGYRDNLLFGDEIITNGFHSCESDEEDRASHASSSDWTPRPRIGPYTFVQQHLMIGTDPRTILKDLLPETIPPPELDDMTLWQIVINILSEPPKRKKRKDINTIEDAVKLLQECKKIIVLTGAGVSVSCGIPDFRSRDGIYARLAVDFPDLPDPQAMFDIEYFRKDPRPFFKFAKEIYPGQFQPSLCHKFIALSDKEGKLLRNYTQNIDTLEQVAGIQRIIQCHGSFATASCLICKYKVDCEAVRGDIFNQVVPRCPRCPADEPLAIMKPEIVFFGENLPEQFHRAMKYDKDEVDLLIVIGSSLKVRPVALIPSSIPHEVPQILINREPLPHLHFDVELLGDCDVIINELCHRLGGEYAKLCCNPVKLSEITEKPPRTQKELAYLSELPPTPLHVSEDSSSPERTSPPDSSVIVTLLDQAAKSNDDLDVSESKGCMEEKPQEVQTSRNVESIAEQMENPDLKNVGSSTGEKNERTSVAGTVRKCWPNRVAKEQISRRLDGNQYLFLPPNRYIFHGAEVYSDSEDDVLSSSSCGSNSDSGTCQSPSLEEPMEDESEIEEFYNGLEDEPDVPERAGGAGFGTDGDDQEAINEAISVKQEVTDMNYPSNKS

G9a = molecular target: T2, G9a (Homo sapiens, UniProt Q96KQ7); conditions: cited from earlier work
T2 sequence (Q96KQ7 1-1210): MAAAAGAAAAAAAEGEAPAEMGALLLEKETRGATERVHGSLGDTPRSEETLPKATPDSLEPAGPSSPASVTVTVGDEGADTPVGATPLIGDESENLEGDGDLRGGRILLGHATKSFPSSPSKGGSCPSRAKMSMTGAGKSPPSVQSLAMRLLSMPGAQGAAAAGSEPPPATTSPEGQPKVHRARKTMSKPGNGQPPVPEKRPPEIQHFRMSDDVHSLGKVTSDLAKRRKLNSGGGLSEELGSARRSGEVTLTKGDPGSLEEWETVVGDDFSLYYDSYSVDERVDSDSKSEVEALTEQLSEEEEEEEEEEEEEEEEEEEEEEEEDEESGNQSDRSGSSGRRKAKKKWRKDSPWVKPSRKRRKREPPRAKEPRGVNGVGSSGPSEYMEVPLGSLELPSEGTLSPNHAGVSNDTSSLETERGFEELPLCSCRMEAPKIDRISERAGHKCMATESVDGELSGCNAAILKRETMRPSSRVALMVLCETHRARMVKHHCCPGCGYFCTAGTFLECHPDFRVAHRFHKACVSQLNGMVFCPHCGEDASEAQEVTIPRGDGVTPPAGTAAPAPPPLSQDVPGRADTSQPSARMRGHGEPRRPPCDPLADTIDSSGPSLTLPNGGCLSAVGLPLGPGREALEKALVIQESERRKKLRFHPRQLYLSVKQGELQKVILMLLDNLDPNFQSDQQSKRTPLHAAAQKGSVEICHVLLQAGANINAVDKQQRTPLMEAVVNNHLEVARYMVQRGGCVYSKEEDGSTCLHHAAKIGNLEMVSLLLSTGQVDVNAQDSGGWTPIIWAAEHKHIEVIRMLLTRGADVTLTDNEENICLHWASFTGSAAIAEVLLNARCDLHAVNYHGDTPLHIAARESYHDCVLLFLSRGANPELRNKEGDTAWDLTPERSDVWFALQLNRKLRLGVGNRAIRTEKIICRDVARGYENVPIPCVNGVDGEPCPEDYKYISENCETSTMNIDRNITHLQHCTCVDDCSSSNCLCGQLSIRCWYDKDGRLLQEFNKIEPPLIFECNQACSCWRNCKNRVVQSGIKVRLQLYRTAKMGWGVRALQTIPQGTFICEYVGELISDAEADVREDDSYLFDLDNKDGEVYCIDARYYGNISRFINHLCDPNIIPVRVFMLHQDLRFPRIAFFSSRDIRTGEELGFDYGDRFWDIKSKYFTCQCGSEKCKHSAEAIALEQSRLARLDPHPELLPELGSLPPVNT

HL-60 cells = assay: Viability of HL-60 cells expressing pLKO or shRNF5; conditions: tunicamycin 2 μg/mL, RNF5-KD versus control
primary AML blasts = assay: FK228 dose response in patient AML cells (CellTiterGlo); format: cell-based; conditions: Homo sapiens, 48 h
[1] = system: H3K9 dimethylation in MDA-MB231 cells; conditions: cited from earlier work
LSD1 = LSD1 (Homo sapiens, UniProt O60341); conditions: cited from earlier work

Chain of JAK2 (O60674 whole entry, species assumed): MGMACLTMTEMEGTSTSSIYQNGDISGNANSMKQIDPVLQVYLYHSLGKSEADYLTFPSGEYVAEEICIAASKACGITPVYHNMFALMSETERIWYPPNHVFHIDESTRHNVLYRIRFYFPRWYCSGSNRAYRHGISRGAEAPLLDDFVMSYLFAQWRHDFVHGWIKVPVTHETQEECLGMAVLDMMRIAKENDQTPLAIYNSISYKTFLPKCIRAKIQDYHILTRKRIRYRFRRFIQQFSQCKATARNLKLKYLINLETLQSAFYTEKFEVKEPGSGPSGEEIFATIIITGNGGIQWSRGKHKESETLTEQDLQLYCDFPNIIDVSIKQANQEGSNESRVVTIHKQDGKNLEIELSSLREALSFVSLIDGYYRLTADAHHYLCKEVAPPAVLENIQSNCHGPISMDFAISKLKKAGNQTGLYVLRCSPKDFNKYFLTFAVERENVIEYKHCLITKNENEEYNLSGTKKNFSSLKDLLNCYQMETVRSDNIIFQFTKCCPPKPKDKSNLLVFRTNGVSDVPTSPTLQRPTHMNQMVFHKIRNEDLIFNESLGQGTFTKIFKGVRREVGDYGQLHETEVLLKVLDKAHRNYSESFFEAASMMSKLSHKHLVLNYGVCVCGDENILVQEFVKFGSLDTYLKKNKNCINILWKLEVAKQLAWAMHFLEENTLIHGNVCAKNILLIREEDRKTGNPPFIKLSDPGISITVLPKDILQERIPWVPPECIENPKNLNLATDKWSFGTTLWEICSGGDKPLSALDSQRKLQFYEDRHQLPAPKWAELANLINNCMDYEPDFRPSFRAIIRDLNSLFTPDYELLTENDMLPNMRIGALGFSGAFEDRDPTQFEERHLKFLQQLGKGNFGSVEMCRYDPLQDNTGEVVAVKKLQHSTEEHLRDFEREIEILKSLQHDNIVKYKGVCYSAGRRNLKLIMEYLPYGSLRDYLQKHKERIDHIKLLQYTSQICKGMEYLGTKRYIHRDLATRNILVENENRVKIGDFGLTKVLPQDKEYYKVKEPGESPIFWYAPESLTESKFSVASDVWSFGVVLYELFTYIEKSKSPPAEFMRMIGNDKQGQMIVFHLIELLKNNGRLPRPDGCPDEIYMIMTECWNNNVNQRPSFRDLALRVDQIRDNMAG

Which IC50 (JAK2) does the source give for CN1CCN(c2cccc(Nc3nc4c(-c5ccc(S(C)(=O)=O)cc5)cccn4n3)c2)CC1 [CEP-33779] here?
Its IC50 is 1.8 nM.

And the “fold selective for JAK2 versus JAK1” value (JAK2)?
The value was “nM, >40- and >800-fold versus JAK1 and TYK2”.

What about the “fold versus TYK2” value (JAK2) of the same molecule?
The value was “nM, >40- and >800-fold versus JAK1 and TYK2”.

For C#CCC(CCCCCC)C(=O)O (stereo not shown) [2-hexyl-4-Pentynoic Acid], which IC50 (HDAC) is on record?
The IC50 was 13000 nM.

Which IC50 (HDAC) does the source give for O=C(CCCCCCSc1ccc2ccccc2c1)NO [HNHA] here?
Its IC50 is 100 nM.

Which EC50 (SIRT1; activator) does the source give for O=C(Nc1ccccc1-c1cn2c(CN3CCNCC3)csc2n1)c1cnc2ccccc2n1 [SRT1720] here?
Its EC50 is 160 nM.

And the “fold less potent for SIRT2 and SIRT3” value (SIRT1)?
Its value is “uM, but is >230-fold less potent for SIRT2 and SIRT3”.

For COc1cc2c(NC3CCN(C)CC3)nc(N3CCCN(C)CC3)nc2cc1OCCOCCN(C)C [UNC0321 (trifluoroacetate salt)], which IC50 (G9a) is on record?
Its IC50 is 6 nM.

What about the Ki (G9a) of the same molecule?
Its Ki is 0.063 nM.

What about the “fold selective for G9a over SET7/9, SET8, PRMT3, and JMJD2E” value (G9a) of the same molecule?
Its value is > 40,000 fold.

With O=C(/C=C/c1ccc(CN(CCO)CCc2c[nH]c3ccccc23)cc1)NO [LAQ824 (Dacinostat), Dacinostat] as the molecule, how does the IC50 (HDAC) read?
The IC50 was 32 nM.

With CN(C)c1ccc(C(=O)NCCCCCC(=O)NO)cc1 [CAY10398] as the molecule, how does the IC50 (HDAC) read?
The IC50 was 10000 nM.

With Tunicamycin as the molecule, how does the viability (HL-60 cells) read?
The viability was “decreased viability of RNF5-KD HL-60 cells”.

With CCCCc1nc2cc(/C=C/C(=O)NO)ccc2n1CCN(CC)CC [Pracinostat (SB939), Pracinostat] as the molecule, how does the IC50 (HDAC) read?
The IC50 was 40 to 140 nM.

For Cc1cc(Nc2nc(N[C@@H](C)c3ccc(F)cc3)c(C#N)cc2F)n[nH]1 [AZ 960], which IC50 (JAK2) is on record?
Its IC50 is < 3 nM.

And the “fold selective for JAK2 versus JAK3” value (JAK2)?
Its value is 3 fold.

With C/C=C1\NC(=O)[C@H]2CSSCC/C=C/[C@H](CC(=O)N[C@H](C(C)C)C(=O)N2)OC(=O)[C@H](C(C)C)NC1=O [Romidepsin (FK228, Depsipeptide), Romidepsin] as the molecule, how does the IC50 (primary AML blasts; AML-013, high-expressing group) read?
The IC50 was 0.126 nM.

What about the IC50 (primary AML blasts; AML-037, low RNF5 and RBBP4, 48 h) of the same molecule?
The IC50 was 0.0398 nM.

What about the IC50 (primary AML blasts; AML-072B, high-expressing group) of the same molecule?
The IC50 was 0.251 nM.

What about the IC50 (primary AML blasts; AML-075B, low RNF5 and RBBP4, 48 h) of the same molecule?
Its IC50 is 0.02 nM.

What does the source list for COc1cc2c(NC3CCN(CC4CCCCC4)CC3)nc(N3CCCN(C(C)C)CC3)nc2cc1OCCCN1CCCCC1 [UNC0631]?
IC50 [1]: 25 nM; IC50 (G9a): 4 nM

Which results are given for N[C@H]1C[C@@H]1c1ccc(-c2cccc(O)c2)cc1 [OG-L002]?
IC50 (LSD1): 20 nM; fold selectivity over MAO-A (LSD1): 69 fold; fold selectivity over MAO-B (LSD1): 36 fold

For CC(C)[C@H](C(=O)Nc1ccc(C(=O)NO)cc1)c1ccccc1 [AR-42], which IC50 (HDAC) is on record?
Its IC50 is 30 nM.

With COc1cc2c(NC3CCN(C(C)C)CC3)nc(C3CCCCC3)nc2cc1OCCCN1CCCC1 [UNC0638] as the molecule, how does the IC50 [1] read?
Its IC50 is 81 nM.

Which IC50 (LSD1) does the source give for C/C(=N\NC(=O)c1cccc(S(=O)(=O)N2CCOCC2)c1)c1cc(Cl)ccc1O [SP2509] here?
The IC50 was 13 nM.
